According to PubChem BioAssay (NCI):
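Tested at 5 concentrations; 48 h exposure; 96-well plates; endpoints linearly interpolated, else capped at highest concentration. At the TGI there is no net growth.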

Test system: 786-0 renal
Test: growth of human tumour cells (NCI), 48 h

Row | Structure (SMILES) | TGI [µM]
1 | Cc1ccc(NC(=O)/C(CC2N=c3c(ccc4c(O)c5ccccc5c(O)c34)=NC2O)=N/NC(C)(C)C)cc1 (stereo not drawn) | 17.5
2 | COc1ccc(-c2csc(-n3c(-c4ccccc4)nc4c(Br)cc(Br)cc4c3=O)n2)cc1 | 54.4
3 | CC(CCOc1c2ccoc2cc2oc(=O)ccc12)C1=CC(=O)C(C)(C)O1 (stereo not drawn) | > 100
4 | O=C1c2ccccc2-c2nc(-c3ccncc3)cc3c2c1nc1ccccc13 | > 100
5 | CC(=O)OC1CC2CC(=O)CC1N2C (stereo not drawn) | > 100

Test system: A498 renal
Test: growth of human tumour cells (NCI), 48 h

Row | Structure (SMILES) | TGI [µM]
6 | COc1ccc(-c2csc(-n3c(-c4ccccc4)nc4c(Br)cc(Br)cc4c3=O)n2)cc1 | 65.9
7 | CC(=O)OC1CC2CC(=O)CC1N2C (stereo not drawn) | > 100

Test system: A549 NSCLC
Test: growth of human tumour cells (NCI), 48 h

Row | Structure (SMILES) | TGI [µM]
8 | Cc1ccc(NC(=O)/C(CC2N=c3c(ccc4c(O)c5ccccc5c(O)c34)=NC2O)=N/NC(C)(C)C)cc1 (stereo not drawn) | > 100
9 | COc1ccc(-c2csc(-n3c(-c4ccccc4)nc4c(Br)cc(Br)cc4c3=O)n2)cc1 | > 100
10 | CC(CCOc1c2ccoc2cc2oc(=O)ccc12)C1=CC(=O)C(C)(C)O1 (stereo not drawn) | > 100
11 | O=C1c2ccccc2-c2nc(-c3ccncc3)cc3c2c1nc1ccccc13 | 40.2
12 | CC(=O)OC1CC2CC(=O)CC1N2C (stereo not drawn) | > 100

Test system: ACHN renal
Test: growth of human tumour cells (NCI), 48 h

Row | Structure (SMILES) | TGI [µM]
13 | Cc1ccc(NC(=O)/C(CC2N=c3c(ccc4c(O)c5ccccc5c(O)c34)=NC2O)=N/NC(C)(C)C)cc1 (stereo not drawn) | 38.6
14 | COc1ccc(-c2csc(-n3c(-c4ccccc4)nc4c(Br)cc(Br)cc4c3=O)n2)cc1 | > 100
15 | CC(CCOc1c2ccoc2cc2oc(=O)ccc12)C1=CC(=O)C(C)(C)O1 (stereo not drawn) | > 100
16 | O=C1c2ccccc2-c2nc(-c3ccncc3)cc3c2c1nc1ccccc13 | > 100
17 | CC(=O)OC1CC2CC(=O)CC1N2C (stereo not drawn) | > 100

Test system: BT-549 breast
Test: growth of human tumour cells (NCI), 48 h

Row | Structure (SMILES) | TGI [µM]
18 | Cc1ccc(NC(=O)/C(CC2N=c3c(ccc4c(O)c5ccccc5c(O)c34)=NC2O)=N/NC(C)(C)C)cc1 (stereo not drawn) | > 100
19 | COc1ccc(-c2csc(-n3c(-c4ccccc4)nc4c(Br)cc(Br)cc4c3=O)n2)cc1 | 88.8
20 | CC(CCOc1c2ccoc2cc2oc(=O)ccc12)C1=CC(=O)C(C)(C)O1 (stereo not drawn) | > 100
21 | O=C1c2ccccc2-c2nc(-c3ccncc3)cc3c2c1nc1ccccc13 | > 100

Test system: CAKI-1 renal
Test: growth of human tumour cells (NCI), 48 h

Row | Structure (SMILES) | TGI [µM]
22 | Cc1ccc(NC(=O)/C(CC2N=c3c(ccc4c(O)c5ccccc5c(O)c34)=NC2O)=N/NC(C)(C)C)cc1 (stereo not drawn) | 25.6
23 | COc1ccc(-c2csc(-n3c(-c4ccccc4)nc4c(Br)cc(Br)cc4c3=O)n2)cc1 | > 100
24 | CC(CCOc1c2ccoc2cc2oc(=O)ccc12)C1=CC(=O)C(C)(C)O1 (stereo not drawn) | > 100
25 | O=C1c2ccccc2-c2nc(-c3ccncc3)cc3c2c1nc1ccccc13 | > 100
26 | CC(=O)OC1CC2CC(=O)CC1N2C (stereo not drawn) | > 100

Test system: CCRF-CEM leukemia
Test: growth of human tumour cells (NCI), 48 h

Row | Structure (SMILES) | TGI [µM]
27 | Cc1ccc(NC(=O)/C(CC2N=c3c(ccc4c(O)c5ccccc5c(O)c34)=NC2O)=N/NC(C)(C)C)cc1 (stereo not drawn) | 7.26
28 | COc1ccc(-c2csc(-n3c(-c4ccccc4)nc4c(Br)cc(Br)cc4c3=O)n2)cc1 | 43.6
29 | CC(CCOc1c2ccoc2cc2oc(=O)ccc12)C1=CC(=O)C(C)(C)O1 (stereo not drawn) | > 100
30 | O=C1c2ccccc2-c2nc(-c3ccncc3)cc3c2c1nc1ccccc13 | > 100
31 | CC(=O)OC1CC2CC(=O)CC1N2C (stereo not drawn) | > 100

Test system: COLO 205 colon
Test: growth of human tumour cells (NCI), 48 h

Row | Structure (SMILES) | TGI [µM]
32 | Cc1ccc(NC(=O)/C(CC2N=c3c(ccc4c(O)c5ccccc5c(O)c34)=NC2O)=N/NC(C)(C)C)cc1 (stereo not drawn) | > 100
33 | COc1ccc(-c2csc(-n3c(-c4ccccc4)nc4c(Br)cc(Br)cc4c3=O)n2)cc1 | > 100
34 | CC(CCOc1c2ccoc2cc2oc(=O)ccc12)C1=CC(=O)C(C)(C)O1 (stereo not drawn) | > 100
35 | O=C1c2ccccc2-c2nc(-c3ccncc3)cc3c2c1nc1ccccc13 | 62.3
36 | CC(=O)OC1CC2CC(=O)CC1N2C (stereo not drawn) | > 100

Test system: DU-145 prostate
Test: growth of human tumour cells (NCI), 48 h

Row | Structure (SMILES) | TGI [µM]
37 | Cc1ccc(NC(=O)/C(CC2N=c3c(ccc4c(O)c5ccccc5c(O)c34)=NC2O)=N/NC(C)(C)C)cc1 (stereo not drawn) | 39.5
38 | COc1ccc(-c2csc(-n3c(-c4ccccc4)nc4c(Br)cc(Br)cc4c3=O)n2)cc1 | > 100
39 | CC(CCOc1c2ccoc2cc2oc(=O)ccc12)C1=CC(=O)C(C)(C)O1 (stereo not drawn) | > 100
40 | O=C1c2ccccc2-c2nc(-c3ccncc3)cc3c2c1nc1ccccc13 | 32.3
41 | CC(=O)OC1CC2CC(=O)CC1N2C (stereo not drawn) | > 100

Test system: EKVX NSCLC
Test: growth of human tumour cells (NCI), 48 h

Row | Structure (SMILES) | TGI [µM]
42 | Cc1ccc(NC(=O)/C(CC2N=c3c(ccc4c(O)c5ccccc5c(O)c34)=NC2O)=N/NC(C)(C)C)cc1 (stereo not drawn) | > 100
43 | COc1ccc(-c2csc(-n3c(-c4ccccc4)nc4c(Br)cc(Br)cc4c3=O)n2)cc1 | 35.1
44 | CC(CCOc1c2ccoc2cc2oc(=O)ccc12)C1=CC(=O)C(C)(C)O1 (stereo not drawn) | > 100
45 | O=C1c2ccccc2-c2nc(-c3ccncc3)cc3c2c1nc1ccccc13 | > 100
46 | CC(=O)OC1CC2CC(=O)CC1N2C (stereo not drawn) | > 100

Test system: HCC-2998 colon
Test: growth of human tumour cells (NCI), 48 h

Row | Structure (SMILES) | TGI [µM]
47 | Cc1ccc(NC(=O)/C(CC2N=c3c(ccc4c(O)c5ccccc5c(O)c34)=NC2O)=N/NC(C)(C)C)cc1 (stereo not drawn) | 78.5
48 | COc1ccc(-c2csc(-n3c(-c4ccccc4)nc4c(Br)cc(Br)cc4c3=O)n2)cc1 | > 100
49 | CC(CCOc1c2ccoc2cc2oc(=O)ccc12)C1=CC(=O)C(C)(C)O1 (stereo not drawn) | > 100
50 | O=C1c2ccccc2-c2nc(-c3ccncc3)cc3c2c1nc1ccccc13 | 42.9
51 | CC(=O)OC1CC2CC(=O)CC1N2C (stereo not drawn) | > 100

Test system: HCT-116 colon
Test: growth of human tumour cells (NCI), 48 h

Row | Structure (SMILES) | TGI [µM]
52 | Cc1ccc(NC(=O)/C(CC2N=c3c(ccc4c(O)c5ccccc5c(O)c34)=NC2O)=N/NC(C)(C)C)cc1 (stereo not drawn) | 29.6
53 | COc1ccc(-c2csc(-n3c(-c4ccccc4)nc4c(Br)cc(Br)cc4c3=O)n2)cc1 | 77.1
54 | CC(CCOc1c2ccoc2cc2oc(=O)ccc12)C1=CC(=O)C(C)(C)O1 (stereo not drawn) | > 100
55 | O=C1c2ccccc2-c2nc(-c3ccncc3)cc3c2c1nc1ccccc13 | > 100
56 | CC(=O)OC1CC2CC(=O)CC1N2C (stereo not drawn) | > 100

Test system: HCT-15 colon
Test: growth of human tumour cells (NCI), 48 h

Row | Structure (SMILES) | TGI [µM]
57 | Cc1ccc(NC(=O)/C(CC2N=c3c(ccc4c(O)c5ccccc5c(O)c34)=NC2O)=N/NC(C)(C)C)cc1 (stereo not drawn) | 44.5
58 | COc1ccc(-c2csc(-n3c(-c4ccccc4)nc4c(Br)cc(Br)cc4c3=O)n2)cc1 | > 100
59 | CC(CCOc1c2ccoc2cc2oc(=O)ccc12)C1=CC(=O)C(C)(C)O1 (stereo not drawn) | > 100
60 | O=C1c2ccccc2-c2nc(-c3ccncc3)cc3c2c1nc1ccccc13 | > 100
61 | CC(=O)OC1CC2CC(=O)CC1N2C (stereo not drawn) | > 100

Test system: HL-60(TB) leukemia
Test: growth of human tumour cells (NCI), 48 h

Row | Structure (SMILES) | TGI [µM]
62 | Cc1ccc(NC(=O)/C(CC2N=c3c(ccc4c(O)c5ccccc5c(O)c34)=NC2O)=N/NC(C)(C)C)cc1 (stereo not drawn) | 28.1
63 | COc1ccc(-c2csc(-n3c(-c4ccccc4)nc4c(Br)cc(Br)cc4c3=O)n2)cc1 | 49
64 | CC(CCOc1c2ccoc2cc2oc(=O)ccc12)C1=CC(=O)C(C)(C)O1 (stereo not drawn) | > 100
65 | O=C1c2ccccc2-c2nc(-c3ccncc3)cc3c2c1nc1ccccc13 | 34.5
66 | CC(=O)OC1CC2CC(=O)CC1N2C (stereo not drawn) | > 100

Test system: HOP-62 NSCLC
Test: growth of human tumour cells (NCI), 48 h

Row | Structure (SMILES) | TGI [µM]
67 | Cc1ccc(NC(=O)/C(CC2N=c3c(ccc4c(O)c5ccccc5c(O)c34)=NC2O)=N/NC(C)(C)C)cc1 (stereo not drawn) | 43.9
68 | COc1ccc(-c2csc(-n3c(-c4ccccc4)nc4c(Br)cc(Br)cc4c3=O)n2)cc1 | > 100
